In article PMC12509316, “Isoform-Selective PAD2/PAD4 Substrates with Unnatural Amino Acids Enable Cellular Peptidylarginine Deiminase Activity Profiling and Reveal Vimentin Citrullination Effects in Macrophages” (Biochemistry, 2025):
Non-standard residues stand in square brackets, D forms with d. *: point of attachment. Phe(3-I) = N[C@@H](Cc1cccc(I)c1)C(=O)O; ACC = NC(=O)Cc1cc(=O)oc2cc(N*)ccc12; hCha = N[C@@H](CCC1CCCCC1)C(=O)O; hPhe = N[C@@H](CCc1ccccc1)C(=O)O; 3Pal = N[C@@H](Cc1cccnc1)C(=O)O; OBn = c1ccc(CO*)cc1

Experiments:
PAD2 = assay: Trypsin-coupled fluorogenic citrullination assay of ACC substrates with recombinant PAD2; type: biochemical, human; details: for citrullination of substrate by PAD2: substrate 10 μM, PAD2 37.5-300 nM (effective at 150-300 nM), 15 min preincubation, then trypsin 5 nM, ACC fluorescence ex 355/em 460 nm, pH 7.2, 5 mM CaCl2, triplicate; for selectivity for PAD2 over PAD4: comparison of citrullination by PAD2 and PAD4, 37.5-300 nM enzyme
Description: (§1) All kinetic studies were conducted using an fMax fluorescence plate reader (Molecular Devices) operating in the fluorescence kinetic mode with 96- or 384-well plates. The fluorescence of ACC was monitored at excitation and emission wavelengths of 355 and 460 nm, respectively. The assay buffers for PADs and trypsin consisted of 100 mM TRIS-HCl, 10 mM NaCl, 5 mM CaCl2, and 5 mM DTT (pH 7.2). All experiments, including library screening and substrate kinetics, were repeated at least three times and the average values were reported. Kinetic data were analyzed using GraphPad Prism software (version 10.2.0).
(§2) Substrate screening for PAD2 and PAD4 was performed at a final substrate concentration of 10 μM, as described in “PAD substrate specificity profiling section”. PAD2 and PAD4 were tested across a concentration range of 37.5 nM to 300 nM, whereas the trypsin concentration was 5 nM. Briefly, each substrate was preincubated with the specified concentration of PAD in a 50 μL reaction volume (or in 50 μL of buffer for PAD-untreated control) for 15 min, after which 50 μL of trypsin was added to the reaction wells. The hydrolysis of Arg-containing substrates by trypsin was monitored over time. The percentage of substrate citrullination was calculated by comparing the extent of trypsin-mediated cleavage of untreated substrates with that of substrates preincubated with PAD. Each assay was performed in triplicate, and the resulting citrullination percentages are presented graphically. The standard deviation of each data point was less than 15%.

THP-1 cells = assay: Protein analysis of PMA-differentiated THP-1 cells (Western blot); type: cell-based, human; details: for caspase-1 processing to p10 fragment / vimentin and GSDMD protein levels / GSDMD cleavage: 1 h pretreatment before 40 nM PMA; for caspase-1 processing to p10 fragment / GSDMD cleavage: BAPTA 10 μM, calpeptin 100 μM; for caspase-1 processing to p10 fragment / vimentin and GSDMD protein levels: Cl-amidine 25 μM, Z-DEVD-FMK 10 μM, VX-765 10 μM
Description: Low-passage THP-1 cells were seeded into 12-well plates and treated with increasing concentrations of phorbol 12-myristate 13-acetate (PMA) ranging from 1 nM to 100 nM. The cells were incubated for 24 h to allow adherence and differentiation. Following incubation, the cells were lysed, and the lysates were subjected to SDS-PAGE (200 V, 30 min) and Western blot analysis. The expression and cleavage of vimentin, gasdermin D (GSDMD), NLRP3, and caspase-1 were analyzed using specific primary antibodies (1:500–1:1,000), followed by incubation with an antirabbit secondary antibody conjugated to Alexa Fluor 800 (1:10,000). Fluorescence signals were detected using an Azure Biosystems Sapphire RGB-NIR biomolecular imager. Ponceau S staining was used as a loading control to ensure equal protein loading in each lane. In a subsequent experiment, THP-1 cells were pretreated with specific inhibitors for 1 h prior to PMA-induced differentiation (40 nM PMA). The inhibitors used were: BAPTA (10 μM, calcium chelator), calpeptin (100 μM, calpain inhibitor), 4-bisindolylmaleimide (25 μM, PKC inhibitor), N-α-benzoyl-N5-(2-chloro-1-iminoethyl)-L-Orn amide or Cl-amidine (25 μM, pan PAD inhibitor, PADi), Z-DEVD-FMK (10 μM, caspase-3 inhibitor), and VX-765 (10 μM, caspase-1 inhibitor). After PMA treatment, the cells were lysed, and the lysates were processed for SDS-PAGE (200 V, 30 min) and Western blotting. Protein detection and visualization were performed in the same manner as in the cell-based experiments without inhibitors.

PAD4 [1] = assay: Trypsin-coupled fluorogenic citrullination assay of ACC substrates with recombinant PAD4; type: biochemical, human; details: for selectivity for PAD4 over PAD2: comparison of citrullination by PAD4 and PAD2, 37.5-300 nM enzyme; for citrullination of substrate by PAD4: substrate 10 μM, PAD4 37.5-300 nM, 15 min preincubation, then trypsin 5 nM, ACC fluorescence ex 355/em 460 nm, pH 7.2, 5 mM CaCl2, triplicate
Description: as §1, §2

[2] = system: PMA/LPS-treated THP-1 cells; assay: Western blot of GSDMD and IL-1β processing after DAMP treatment; type: cell-based, human
Description: THP-1 cells were seeded and stimulated with PMA and LPS, as described in “Protein analysis of PMA-differentiated THP-1 cells” section. After stimulation, vimentin, citrullinated vimentin, or their cleavage products-generated by caspase-3 or calpain-1 digestion were added to the cells, which were then incubated for an additional 48 h. Following incubation, lactate dehydrogenase (LDH) activity in the supernatant was measured using the CytoTox 96 Non-Radioactive Cytotoxicity Assay (G1718) as an indicator of membrane disruption, according to the manufacturer’s protocol. Cytotoxicity was calculated as the percentage of LDH released from the treated samples relative to the LDH release induced by the lysis buffer and normalized to the spontaneous release from the control cells. Absorbance was measured at 490 nm using a spectrophotometric microplate reader (Gemini XPS, Molecular Devices). All experiments were independently performed in triplicate. Statistical analyses were performed using GraphPad Prism software (GraphPad Software, Inc., La Jolla, CA, USA). One-way ANOVA followed by Tukey’s multiple comparisons posthoc test was used to determine statistical significance. For Western blot analysis, proteins from the cell lysates were prepared as described in “Protein analysis of PMA-differentiated THP-1 cells”. To isolate proteins from the supernatant, 1 mL of the sample was mixed with 0.5 mL of 30% trichloroacetic acid (TCA) at room temperature and incubated on ice for 30 min. The mixture was centrifuged at 12,000 × g for 20 min at 4 °C. The supernatant was discarded, and the pellet was washed with 100 μL of 10% TCA, followed by centrifugation. The pellet was then washed with 300 μL of acetone, centrifuged again, and allowed to dry completely. The remaining residues were dissolved in SDS-PAGE loading buffer under reducing conditions. Proteins of interest were detected using primary antibodies against GSDMD and interleukin-1β (IL-1β), followed by secondary antirabbit antibodies conjugated with Alexa Fluor 800. Fluorescence signals were visualized using an Azure Biosystems Sapphire RGB-NIR biomolecular imager. Ponceau S staining was used as a loading control to verify equal protein loading in the SDS-PAGE.

PAD4 [3] = assay: Vimentin citrullination assay (Western blot); type: biochemical, human; details: recombinant vimentin 80 μg, 100 nM PAD4, 5-60 min
Description: Recombinant vimentin (80 μg) was incubated with 100 nM PAD4 for varying durations (5–60 min). Following incubation, the samples were subjected to SDS-PAGE, and the proteins were subsequently transferred onto a nitrocellulose membrane. Western blot analysis was performed using antivimentin and anticitrullinated vimentin antibodies, followed by a secondary antibody conjugated to Alexa Fluor 800 to assess the time-dependent decrease in native vimentin levels and the corresponding increase in citrullinated vimentin levels. Subsequently, both native and citrullinated vimentin were incubated with either human recombinant caspase-3 (20 nM) or calpain-1 (10 nM) for 30 min. After incubation, the samples were analyzed by SDS-PAGE followed by colloidal Coomassie dye G-250 (Thermo, 24590) staining.

## Ac-D(OBn)[hCha]DR-{ACC} (SMILES CC(=O)N[C@@H](CC(=O)OCc1ccccc1)C(=O)N[C@@H](CCC1CCCCC1)C(=O)N[C@@H](CC(=O)O)C(=O)N[C@@H](CCCNC(=N)N)C(=O)Nc1ccc2c(CC(N)=O)cc(=O)oc2c1) [(4)-NH-11]
PAD2
  citrullination of substrate by PAD2: some degree of cross-reactivity

## N=C(CCl)NCCC[C@H](NC(=O)c1ccccc1)C(N)=O [Cl-amidine, N-α-benzoyl-N5-(2-chloro-1-iminoethyl)-L-Orn amide]
THP-1 cells
  caspase-1 processing to p10 fragment: prevented
  vimentin and GSDMD protein levels: marked downregulation

## Ac-[Phe(3-I)][3Pal]DR-{ACC} (SMILES CC(=O)N[C@@H](Cc1cccc(I)c1)C(=O)N[C@@H](Cc1cccnc1)C(=O)N[C@@H](CC(=O)O)C(=O)N[C@@H](CCCNC(=N)N)C(=O)Nc1ccc2c(CC(N)=O)cc(=O)oc2c1) [(4)-NH-12]
PAD2
  citrullination of substrate by PAD2: poorly recognized
PAD4 [1]
  selectivity for PAD4 over PAD2: most selective
  citrullination of substrate by PAD4: efficiently processed

## Ac-[Phe(3-I)][hCha]DR-{ACC} (SMILES CC(=O)N[C@@H](Cc1cccc(I)c1)C(=O)N[C@@H](CCC1CCCCC1)C(=O)N[C@@H](CC(=O)O)C(=O)N[C@@H](CCCNC(=N)N)C(=O)Nc1ccc2c(CC(N)=O)cc(=O)oc2c1) [(4)-NH-13]
PAD2
  citrullination of substrate by PAD2: some degree of cross-reactivity

## COC(=O)CC[C@H](NC(=O)[C@H](CC(=O)OC)NC(=O)OCc1ccccc1)C(=O)N[C@H](C(=O)N[C@@H](CC(=O)OC)C(=O)CF)C(C)C [Z-DEVD-fmk, Z-DEVD-FMK]
THP-1 cells
  caspase-1 processing to p10 fragment: prevented
  vimentin and GSDMD protein levels: marked downregulation

## vimentin: Recombinant vimentin, purchased from Biotechne (NBP2-35139)
[2]
  pro-IL-1β processing: no cleavage
PAD4 [3]
  citrullination of vimentin by PAD4: efficient citrullination

## CO[C@@H]1C[C@@H](C[C@H]2CC[C@H](C)[C@H]([C@@H](C)C(=O)O)O2)O[C@]2(O[C@](C)([C@H]3CC[C@@](C)([C@@H]4O[C@@H]([C@H]5O[C@@](O)(CO)[C@H](C)C[C@@H]5C)C[C@@H]4C)O3)C[C@H]2C)[C@@H]1C [nigericin, reference compound]
[2]
  GSDMD processing fragment: p31 fragment
  pro-IL-1β processing: activation of pro-interleukin-1β

## CCCC[C@@H](C=O)NC(=O)[C@H](CC(C)C)NC(=O)OCc1ccccc1 [calpeptin]
THP-1 cells
  GSDMD cleavage: cleavage of GSDMD
  caspase-1 processing to p10 fragment: processed into its active 10 kDa fragment

## Ac-[dY]A[hPhe]R-{ACC} (SMILES CC(=O)N[C@H](Cc1ccc(O)cc1)C(=O)N[C@@H](C)C(=O)N[C@@H](CCc1ccccc1)C(=O)N[C@@H](CCCNC(=N)N)C(=O)Nc1ccc2c(CC(N)=O)cc(=O)oc2c1) [(2)-NH-7]
PAD2
  selectivity for PAD2 over PAD4: most selective
  citrullination of substrate by PAD2: higher reactivity
PAD4 [1]
  citrullination of substrate by PAD4: only minor processing

## Ac-NV[hCha]R-{ACC} (SMILES CC(=O)N[C@@H](CC(N)=O)C(=O)N[C@H](C(=O)N[C@@H](CCC1CCCCC1)C(=O)N[C@@H](CCCNC(=N)N)C(=O)Nc1ccc2c(CC(N)=O)cc(=O)oc2c1)C(C)C) [(2)-NH-8]
PAD2
  selectivity for PAD2 over PAD4: most selective
  citrullination of substrate by PAD2: higher reactivity
PAD4 [1]
  citrullination of substrate by PAD4: only minor processing

## Ac-D(OBn)[dY]DR-{ACC} (SMILES CC(=O)N[C@@H](CC(=O)OCc1ccccc1)C(=O)N[C@H](Cc1ccc(O)cc1)C(=O)N[C@@H](CC(=O)O)C(=O)N[C@@H](CCCNC(=N)N)C(=O)Nc1ccc2c(CC(N)=O)cc(=O)oc2c1) [(4)-NH-2]
PAD2
  citrullination of substrate by PAD2: poorly recognized
PAD4 [1]
  selectivity for PAD4 over PAD2: most selective
  citrullination of substrate by PAD4: efficiently processed

## CCO[C@@H]1OC(=O)C[C@@H]1NC(=O)[C@@H]1CCCN1C(=O)[C@@H](NC(=O)c1ccc(N)c(Cl)c1)C(C)(C)C [VX-765]
THP-1 cells
  caspase-1 processing to p10 fragment: prevented
  vimentin and GSDMD protein levels: marked downregulation

## CCCCCCCCCCCCCC(=O)O[C@@H]1[C@@H](C)[C@@]2(O)[C@@H](C=C(CO)C[C@]3(O)C(=O)C(C)=C[C@@H]23)[C@@H]2C(C)(C)[C@]12OC(C)=O [PMA, phorbol 12-myristate 13-acetate]
THP-1 cells; PMA 1-100 nM, 24 h
  GSDMD and NLRP3 protein levels: downregulating
  vimentin protein level: dose-dependent upregulation

## citrullinated vimentin: PAD4-mediated citrullinated vimentin
[2]
  pro-IL-1β processing: no cleavage

## O=C(O)CN(CC(=O)O)c1ccccc1OCCOc1ccccc1N(CC(=O)O)CC(=O)O [BAPTA]
THP-1 cells
  GSDMD cleavage: cleavage of GSDMD
  caspase-1 processing to p10 fragment: processed into its active 10 kDa fragment
